Each structure is given as a SMILES string.

Assay [1] is filed under the species Homo sapiens. Kind of assay: Inhibition of growth of human keratinocytes. The class given is functional.
Assay [2] deals with Inosine-5'-monophosphate dehydrogenase (IMPDH) (Homo sapiens, UniProt P20839+P12268). Kind of assay: Inhibition of […] dehydrogenase (IMPDH); range 7-8 nM. In kind it is protein assay.
The target of assay [3] is T1, Vitamin D3 receptor (Homo sapiens, UniProt P11473).
T1 sequence (P11473 whole entry): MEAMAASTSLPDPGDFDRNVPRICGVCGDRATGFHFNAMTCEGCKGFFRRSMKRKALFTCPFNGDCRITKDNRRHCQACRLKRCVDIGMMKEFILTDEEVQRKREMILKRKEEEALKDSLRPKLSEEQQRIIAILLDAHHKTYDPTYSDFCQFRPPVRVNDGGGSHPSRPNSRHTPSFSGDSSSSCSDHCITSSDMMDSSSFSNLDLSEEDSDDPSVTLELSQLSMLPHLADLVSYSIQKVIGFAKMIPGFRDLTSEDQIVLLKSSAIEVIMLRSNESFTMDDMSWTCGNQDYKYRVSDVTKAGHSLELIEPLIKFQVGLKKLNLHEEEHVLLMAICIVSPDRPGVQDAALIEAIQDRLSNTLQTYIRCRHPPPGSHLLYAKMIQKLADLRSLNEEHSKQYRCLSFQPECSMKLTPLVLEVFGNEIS
Kind of assay: Binding affinity to VDR receptor.

Assay [4] in a line: Inhibition of growth of T-cell lymphoblastoma; range 1-10 uM. In kind it is functional.
Assay [5] in a line: Competitive inhibition of ATP binding.

As for `C=C1/C(=C\C=C2/CCC[C@]3(C)[C@@H]([C@H](C)/C=C/[C@@H](O)C4CC4)CC[C@@H]23)C[C@@H](O)C[C@@H]1O` [CALCIPOTRIENE], the half-inhibitory concentration (IC50) (usually the concentration at which inhibition is half-maximal) in assay [1] worked out at 32000 pM.
As for `COc1c(C)c2c(c(N)c1C/C=C1\CCCC1[C@H](C)C(=O)O)C(=O)OC2` (some centres undefined), the IC50 in assay [2] was found to be 7000 pM. This counts as single-digit nanomolar.
On to `C=C1/C(=C\C=C2/CCC[C@]3(C)C([C@@H](C)COc4ccc(C(C)(C)O)cc4)CC[C@@H]23)C[C@@H](O)C[C@@H]1O` (some centres undefined), for which the Kd (in general, the constant that tells how readily two partners part at equilibrium) in assay [3] amounted to 73 pM. Further, the IC50 in assay [1] turned out to be 110 pM.
Consider `C=C1/C(=C\C=C2/CCC[C@]3(C)C([C@@H](C)CSc4ccc(C(C)(C)O)cc4)CC[C@@H]23)C[C@@H](O)C[C@@H]1O` (some centres undefined), for which binding in assay [3] was characterised by a dissociation constant (Kd) of 89 pM. Further, the IC50 in assay [1] stood at 280 pM.
For `C/C(O)=C(\C#N)C(=O)Nc1ccc(C(F)(F)F)cc1`, the Concentration in assay [4] stood at 1 µM.
For `COc1cc2ncnc(Nc3cccc(Br)c3)c2cc1OC`, the IC50 in assay [5] turned out to be 25 pM.
The compound `COc1cc(NC(=O)Nc2cccc(CNC(=O)O[C@H]3CCOC3)c2)ccc1-c1cnco1` [MERIMEPODIB] registered an IC50 in assay [2] of 7000 pM.

Source of the values: ChEMBL document CHEMBL1134331, “New dermatological agents for the treatment of psoriasis” (J Med Chem, 2001).
